Key:
HL60 (leukemia) = assay: In vitro cytotoxic activity (MTT) assay, HL60; assay type: cell-based; conditions: Homo sapiens, HL-60, 96 hours exposure, read-out: IC50, 50% inhibition of cell proliferation
Procedure: (§1) Compounds 1-15 were screened for their in vitro cytotoxic activity utilizing a 3-(4,5-dimethyl-thiazol-2-yl)-2,5-diphenyltetrazolium bromide (MTT) assay against selected cancer human cell lines consisting of PC3 (prostate), HCT116 (colon), A375 (melanoma), H1299 (lung), MIAPaCa-2 (pancreas), HL60 (leukemia), MCF7 (breast), MDA-MB-231 (breast) (T. Mosmann, J. Immunol. Meth., 1983, 65, 55-63). The cells were cultured at 37° C. in RMPI1640 medium supplemented with 10% fetal bovine serum, 50 IU/mL penicillin, and 50 μg/mL streptomycin in a 5% CO2 incubator. All cells were sub-cultured 3 times/week by trypsinization. Viable cells were seeded and allowed to adhere for 12 h before a test drug was added in 96-well plates at an initial density of 1.0×10^5 cells/mL. Tumour cell lines were separately exposed to various concentrations of the tested compounds followed by incubation at a temperature of 37° C. during 96 h inside a medium of fresh RMPI 1640. Cells were subsequently incubated at 37° C. using MTT at 0.5 mg/mL during 4 h. After removal of supernatant, formazan crystals were dissolved in isopropanol and the optical density was measured at 570 nm. CX-4945 was used as a positive control.

MDA-MB-231 (breast) = assay: In vitro cytotoxic activity (MTT) assay, MDA-MB-231; assay type: cell-based; conditions: Homo sapiens, 96 hours exposure, read-out: IC50, 50% inhibition of cell proliferation
Procedure: as §1

H1299 (lung) = assay: In vitro cytotoxic activity (MTT) assay, H1299; assay type: cell-based; conditions: Homo sapiens, NCI-H1299, 96 hours exposure, read-out: IC50, 50% inhibition of cell proliferation
Procedure: as §1

[1] = target: T1, recombinant human CK2 (RRββ-holoenzyme) (Homo sapiens, UniProt P68400); assay: CK2 kinase assay ([γ-33P]ATP, filter plate); assay type: biochemical; conditions: final ATP 15 μM, 10 min at 30° C.; read-out: protein kinase CK2 IC50
T1 construct: purchased Millipore
T1 sequence (P68400 whole entry): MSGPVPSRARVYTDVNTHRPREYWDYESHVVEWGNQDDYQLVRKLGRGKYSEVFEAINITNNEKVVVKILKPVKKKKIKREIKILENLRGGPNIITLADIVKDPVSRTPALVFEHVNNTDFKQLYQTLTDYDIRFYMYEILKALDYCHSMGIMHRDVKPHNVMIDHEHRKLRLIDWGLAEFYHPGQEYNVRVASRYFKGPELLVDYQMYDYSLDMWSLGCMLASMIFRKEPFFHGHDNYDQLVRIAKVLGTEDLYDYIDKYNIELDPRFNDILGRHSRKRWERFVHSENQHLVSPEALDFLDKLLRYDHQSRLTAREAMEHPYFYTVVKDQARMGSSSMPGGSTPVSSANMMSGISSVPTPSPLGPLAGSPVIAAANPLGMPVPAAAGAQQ
T1 sequence (P67870 whole entry partner): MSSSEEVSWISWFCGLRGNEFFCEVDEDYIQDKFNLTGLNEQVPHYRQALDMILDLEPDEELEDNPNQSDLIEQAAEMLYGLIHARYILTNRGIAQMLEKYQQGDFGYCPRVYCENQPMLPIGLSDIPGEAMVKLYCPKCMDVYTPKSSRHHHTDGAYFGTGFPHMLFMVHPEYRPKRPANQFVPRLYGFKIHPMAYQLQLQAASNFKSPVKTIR
Procedure: CK2 Kinase Assay was conducted using the protocol as described in Pierre F. et al; J. Med. Chem. 2011, 54, 635-654. The tested compounds in aqueous solution were added at a volume of 10 μL to a reaction mixture comprising 10 μL of assay dilution buffer (ADB; 20 mM MOPS, pH 7.2, 25 mM β-glycerol phosphate, 5 mM EGTA, 1 mM sodium orthovanadate, and 1 mM dithiothreitol), 10 μL of substrate peptide (RRRDDDSDDD, dissolved in ADB at a concentration of 1 mM), 10 μL of recombinant human CK2 (RRββ-holoenzyme, 25 ng dissolved in ADB; Millipore). Reactions were initiated by the addition of 10 μL of ATP solution (90% 75 mMMgCl2, 75 μM ATP (final ATP concentration:15 μM) dissolved in ADB; 10% [γ-33P] ATP (stock 1mCi/100 μL; 3000 Ci/mmol (Perkin-Elmer) and maintained for 10 min at 30° C. The reactions were quenched with 100 μL of 0.75% phosphoric acid and then transferred to and filtered through a phosphor cellulose filter plate (Millipore). After washing each well five times with 0.75% phosphoric acid, the plate was dried under vacuum for 5 min and, following the addition of 15 μL of scintillation fluid to each well, the residual radioactivity was measured using a Wallac […]. The IC50 values were derived from eight concentrations of test inhibitors.

MCF7 (breast) = assay: In vitro cytotoxic activity (MTT) assay, MCF7; assay type: cell-based; conditions: Homo sapiens, 96 hours exposure, read-out: IC50, 50% inhibition of cell proliferation
Procedure: as §1

A375 (melanoma) = assay: In vitro cytotoxic activity (MTT) assay, A375; assay type: cell-based; conditions: Homo sapiens, A-375, 96 hours exposure, read-out: IC50, 50% inhibition of cell proliferation
Procedure: as §1

PC3 (prostate) = assay: In vitro cytotoxic activity (MTT) assay, PC3; assay type: cell-based; conditions: Homo sapiens, 96 hours exposure, read-out: IC50, 50% inhibition of cell proliferation
Procedure: as §1

HCT116 (colon) = assay: In vitro cytotoxic activity (MTT) assay, HCT116; assay type: cell-based; conditions: Homo sapiens, HCT-116, 96 hours exposure, read-out: IC50, 50% inhibition of cell proliferation
Procedure: as §1

MIAPaCa-2 (pancreas) = assay: In vitro cytotoxic activity (MTT) assay, MIAPaCa-2; assay type: cell-based; conditions: Homo sapiens, MIA PaCa-2, 96 hours exposure, read-out: IC50, 50% inhibition of cell proliferation
Procedure: as §1

IC50 [1]: 16 nM
Structure (SMILES): O=C(O)c1cc2c(nc(Nc3cccc(Cl)c3)c3cnccc32)[nH]1 [Compound 1, 5-((3-chlorophenyl)amino)-3H-pyrrolo[2,3-c][2,7]naphthyridine-2-carboxylic acid]
IC50 (HL60 (leukemia)): 2400 nM
IC50 (MDA-MB-231 (breast)): 4100 nM
IC50 (H1299 (lung)): 1100 nM
IC50 (MCF7 (breast)): 3300 nM
IC50 (A375 (melanoma)): 2700 nM
IC50 (PC3 (prostate)): 2600 nM
IC50 (HCT116 (colon)): 900 nM
IC50 (MIAPaCa-2 (pancreas)): 800 nM

Source: patent US11884667B1, “Substituted pyrrolo[2,3-c][2,7]naphthyridines as CK2 inhibitors” (KING FAISAL UNIVERSITY, priority 2023, dated 2024)
